Converted amounts (≈) assume the structure as drawn. Where two headings read alike, the source gives them in different places.
Key:
Assay in all cases: Antibacterial activity, agar dilution streak MIC
Format in all cases: cell-based
Bacillus subtilis PCI219 = details: Bacillus subtilis PCI219, Gram +; read-out: Minimum inhibitory concentration
Method: (§1) The antibacterial activities of the compounds of this invention were assayed by the standard agar dilution streak method against Gram-positive and Gram-negative bacteria [Chemothrapy, 22, 1126 (1974)].

[1] = system: Klebsiella pneumoniae IF03512; details: Klebsiella pneumoniae IF03512, Gram -; read-out: Minimum inhibitory concentration
Method: as §1

S. aureus ATCC14775 = details: Staphylococcus aureus; S. aureus ATCC14775, Gram +; read-out: Minimum inhibitory concentration
Method: as §1

[2] = system: Salmonella enteritidis IID604; details: Salmonella enterica, read-out: Minimum inhibitory concentration
Method: as §1

[3] = system: Diplococcus pneumoniae IID552; details: Streptococcus pneumoniae; Diplococcus pneumoniae IID552, Gram +; read-out: Minimum inhibitory concentration
Method: as §1

[4] = system: Escherichia coli NIHJ JC-2; details: NIHJJC2, read-out: Minimum inhibitory concentration
Method: as §1

[5] = system: Streptococcus pyogenes IID692; details: Streptococcus pyogenes IID692, Gram +; read-out: Minimum inhibitory concentration
Method: as §1

[6] = system: Staphyloccocus aureus 209P; details: read-out: Minimum inhibitory concentration
Method: as §1

[7] = system: Pseudo. aeruginosa IF012689; details: Pseudomonas aeruginosa; Pseudo. aeruginosa IF012689, Gram -; read-out: Minimum inhibitory concentration
Method: as §1

Proteus vulgaris IF03167 = details: Proteus vulgaris IF03167, Gram -; read-out: Minimum inhibitory concentration
Method: as §1

[8] = system: Pseudomonas aeruginosa VI; details: Gram -, read-out: Minimum inhibitory concentration
Method: as §1

Shigella sonnei IID969 = details: Shigella sonnei IID969, Gram -; read-out: Minimum inhibitory concentration
Method: The antibacterial activities of the compounds of this invention were assayed by the standard agar dilution streak method against Gram-positive and Gram-negative bacteria [Chemothrapy, 22, 1126 (1974)]. The result was shown in Table 1 together with a known agent, nalidixic acid.

Structure (SMILES) | MIC [1] [µg/mL] | MIC [3] [µg/mL] | MIC [5] [µg/mL] | MIC [7] [µg/mL] | MIC (Shigella sonnei IID969) [µg/mL] | also measured
CCn1cc(C(=O)O)c(=O)c2cc(F)c(N3CCNCC3)cc21 [Example 1, 1-ethyl-6-fluoro-7-(1-piperazinyl)-4-oxo-1,4-dihydroquinoline-3-carboxylicacid] | 0.05 (≈ 0.157 µM) | 3.13 (≈ 9.8 µM) | 1.56 (≈ 4.89 µM) | 1.56 (≈ 4.89 µM) | 0.1 (≈ 0.313 µM) | MIC (Bacillus subtilis PCI219): 0.39 µg/mL (≈ 1.22 µM); MIC (S. aureus ATCC14775): 3.13 µg/mL (≈ 9.8 µM); MIC ([2]; Salmonella enteritidis IID604, Gram -): 0.2 µg/mL (≈ 0.626 µM); MIC [4]: 0.1 µg/mL (≈ 0.313 µM); MIC ([6]; Staphyloccocus aureus 209P, Gram +): 0.78 µg/mL (≈ 2.44 µM); MIC (Proteus vulgaris IF03167): 0.1 µg/mL (≈ 0.313 µM); MIC [8]: 0.39 µg/mL (≈ 1.22 µM)
CCn1cc(C(=O)O)c(=O)c2cc(F)c(N3CCN(C)CC3)cc21 [Example 6, 1-ethyl-6-fluoro-7-(4-methyl-1-piperazinyl)-4-oxo-1,4-dihydroquinoline-3-carboxylic acid] | 0.05 (≈ 0.15 µM) | 3.13 (≈ 9.39 µM) | 6.25 (≈ 18.7 µM) | 3.13 (≈ 9.39 µM) | 0.1 (≈ 0.3 µM) | MIC [2]: 0.78 µg/mL (≈ 2.34 µM)
CCn1cc(C(=O)O)c(=O)c2ccc(C)nc21 [NA, Nalidixic acid, reference compound] |  |  |  |  |  | MIC [6]: 50 µg/mL (≈ 215 µM)
C=Cn1cc(C(=O)O)c(=O)c2cc(F)c(N3CCNCC3)cc21 [Example 8, 1-vinyl-6-fluoro-7-(1-piperazinyl)-4-oxo-1,4-dihydroquinoline-3-carboxylicacid] |  |  | 12.5 (≈ 39.4 µM) |  |  | 
C=Cn1cc(C(=O)O)c(=O)c2cc(F)c(N3CCN(C)CC3)cc21 [Example 9, 1-vinyl-6-fluoro-7-(4-methyl-1-piperazinyl)-4-oxo-1,4-dihydroquinoline-3-carboxylic acid] |  |  | 12.5 (≈ 37.7 µM) |  |  | 

From patent US4472579A, “Process for the preparation of quinoline carboxylic acid derivatives” (Kyorin Seiyaku Kabushiki Kaisha, priority 1980, dated 1984)
